Assay type in all cases: cell-based, human
The subject of data set [1] is PLZF expression in cord blood-derived CD56^dim NK cells. As to the kind of experiment: Intracellular PLZF staining of cord blood-derived CD56^dim NK cells after 14 days in culture. The settings on record: high-dose IL-15, IL-21 where added. The protocol: FIG. 6A. FACS plots of intracellular PLZF expression in cord blood-derived CD56^dim NK cells from a representative donor after 14 days in the indicated culture conditions. FIG. 6B. Cumulative data showing the percentage of PLZF″ NK cells after 14 days in each culture condition from 6 donors. Two independent experiments were performed. Error bars represent SEM.
Mononuclear cells were isolated from whole cord blood by density gradient centrifugation. T cells and B cells were depleted by positive magnetic selection using anti-CD3 and anti-CD19 microbeads, respectively. CD3/CD19-depleted cells were then added to irradiated OP9 cells at a concentration of 5×10^5 cells/well and cultured for 14 days in RPMI media+10% FBS supplemented with either 1 ng/mL IL-15 or 10 ng/mL IL-15 with or without 50 ng/mL IL-21.
Cord blood-derived NK cells were analyzed before culture and after 7 and 14 days of culture by fluorescence activated cell sorting (FACS) using the following extracellular and intracellular antibodies: BV785-conjugated anti-CD3 (BioLegend, San Diego, CA), PE-Cy7-conjugated anti-CD56 (BioLegend, San Diego, CA), BV605-conjugated anti-CD57 (BioLegend, San Diego, CA), APC-conjugated SYK (eBioscience, San Diego, CA), and PE-conjugated anti-PLZF (BD Biosciences, San Jose, CA).
Transcriptional silencing of the transcription factor promyelocytic leukemia zinc finger (PLZF) is a hallmark of adaptive NK cells that expand in response to CMV infection (Schlums et al. Immunity. 2015; 42(3):443-456). Intracellular staining for PLZF was performed in NK cells from freshly isolated mononuclear cells and from cells that were cultured for 14 days in vitro. Freshly isolated CD56^dimSYK^− NK cells from cord blood were predominantly PLZF-positive (99.3%±0.10). […] Therefore, IL-21 drives down PLZF expression in CD56^dimSYK^− NK cells, causing these cells to acquire adaptive characteristics (FIG. 6).

In another data set the test system is CD155 on monocytes. Nature of the data set: ROS induction in monocytes by H2O2, staining for ROS, CD112 and CD155. The settings on record: H2O2 250 μM. As to the method: (§1) MDSCs were induced from healthy blood donor PBMC with IL-6 (10 ng/mL) and GM-CSF (10 ng/mL) for 7 days, bead-depleted for HLA-DR, and enriched for CD33. FIG. 13A. MDSCs and freshly isolated monocytes were stained for the antigens shown. One representative example from independent experiments is shown. FIG. 13B. Induced MDSCs were stained for CD155 and analyzed by flow cytometry following overnight treatment with superoxide dismutase (SOD, 200 IU/mL), arginase inhibitor (a-ARG, arginase inhibitor N(ω)-hydroxy-nor-L-arginine, 500 μM), ROS scavenger (Catalase, 200 international units per milliliter (IU/mL)), blocking antibodies against TGF-β (10 μg/mL), iNOS inhibitor (aiNOS, NG-monomethyl-1-arginine, 500 micromolar (μM)), or left untreated. Pooled (n=4) data is shown as mean±SEM, and statistical analysis were done using the Student's t-test. FIG. 13C. Unstimulated monocytes and MDSCs were stained for total ROS and analyzed by flow cytometry. FIG. 13D. Unstimulated or H2O2 (250 μM) monocytes and unstimulated MDSCs were stained for total ROS, CD112, and CD155 and analyzed by flow cytometry. Cells double positive for ROS and CD112 or CD155 are shown. One representative donor of six is shown. One representative isotype control is shown for all groups for simplicity as individual controls were similar between conditions. […]

A further data set concerns K562. Nature of the data set: Chromium (51Cr) release assay against K562. The settings on record: anti-TIGIT 10 ug/mL or catalase 200 IU/mL. The protocol: Purified NK cells from healthy blood donors were co-cultured with autologous MDSCs or freshly isolated monocytes at a 2:1 ratio in the presence of IL-15 (10 ng/mL) and in the presence or absence of blocking antibodies against TIGIT (10 μg/mL), or catalase (200 IU/mL) for 5 days. Cells were then washed, rested for 4 hours, stimulated for 10 and 30 min with anti-CD16, and stained for pZAP/Syk or pERK1/2 respectively. Representative (FIG. 14A) or cumulative (FIG. 14B) data are shown from 3 independent experiments as mean±SEM. Statistical analysis was done using the Student's t-test. FIG. 14C. […]
Given the strong suppressive effect of TIGIT engagement on conventional NK cell function and proliferation, the CD16 induced signaling interaction with TIGIT in NK cells co-cultured with MDSC was analyzed. […]
Following 5 days of co-culture with monocytes or MDSCs in the presence or absence of blocking antibodies against TIGIT (10 ug/mL) or ROS scavenger catalase (200 IU/mL), NK cell cytotoxicity was analyzed by chromium (51 Cr) release assays (4 hours) against K562 (ATCC, Manassas, VA) cells at a 5:1-2.5:1 effector:target ratios. 51 Cr release was measured by a γ scintillation counter (Perkin Elmer, Waltham, MA), and specific target lysis was determined.

Another data set deals with pZAP70/Syk and pERK1/2. As to the kind of experiment: Phosflow of pZAP70/Syk and pERK1/2 in NK cells co-cultured with MDSCs. The settings on record: NK cells co-cultured with MDSCs 5 days; anti-TIGIT 10 ug/mL or catalase 200 IU/mL; anti-CD16 stimulation. The protocol:
Purified NK cells from healthy blood donors were co-cultured with autologous MDSCs or freshly isolated monocytes at a 2:1 ratio in the presence of IL-15 (10 ng/mL) and in the presence or absence of blocking antibodies against TIGIT (10 μg/mL), or catalase (200 IU/mL) for 5 days. Cells were then washed, rested for 4 hours, stimulated for 10 and 30 min with anti-CD16, and stained for pZAP/Syk or pERK1/2 respectively. Representative (FIG. 14A) or cumulative (FIG. 14B) data are shown from 3 independent experiments as mean±SEM. Statistical analysis was done using the Student's t-test. FIG. 14C. NK cells from monocyte and MDSC co-cultures in the presence or absence of anti-TIGIT or catalase were washed and incubated with 51 Cr-labeled K562 for 4 hours to assess NK cell cytotoxicity. Representative data from 3 independent experiments is shown as mean±SEM.
Given the strong suppressive effect of TIGIT engagement on conventional NK cell function and proliferation, the CD16 induced signaling interaction with TIGIT in NK cells co-cultured with MDSC was analyzed. […] To investigate whether blocking TIGIT or ROS could recover the function of NK cells cultured with MDSCs in cytotoxicity assays, NK cells were cultured with either monocytes or MDSCs were pre-treated with TIGIT blockade or catalase, washed, and then incubated with 51 Cr-labeled K562 cells. […]

The next data set concerns CD155 on MDSCs. Nature of the data set: CD155 staining of induced MDSCs after overnight treatment with inhibitors of MDSC pathways. The settings on record: catalase 200 IU/mL overnight. The protocol:
as §1, with “FIG. 13C.” left out, “FIG. 13D.” left out, “cytometry.” for “cytometry. Cells double positive for ROS and CD112 or CD155 are shown. One representative donor of six is shown. One representative isotype control is shown for all groups for simplicity as individual controls were similar between conditions.”
Purified NK cells or MDS PBMC (FIG. 17) cultured with monocytes or MDSCs for different time points and with different stimuli were resuspended in staining buffer (PBS containing 0.5% human AB serum) and stained with fluorochrome-conjugated antibodies (Table IV). […] All cells were acquired by LSRII and analyzed by FlowJo. […]

Consider “IL-21: cytokine added at 50 ng/mL to IL-15 cultures”, for which the “decrease in PLZF expression (percentage of PLZF-negative NK cells)” value in data set [1] (CD56^dimCD57^+SYK^+ NK cells) was 12.13%±2.43; in data set [1] (CD56^dimCD57^+SYK^− NK cells), 66.0%±8.86; in data set [1] (CD56^dimCD57^−SYK^+ NK cells), 14.92%±1.80; in data set [1] (CD56^dimCD57^−SYK^− NK cells), 35.82%±7.02.
Turning to `OO` [H2O2], in the data set with CD155 on monocytes, the “expression of CD155 in ROS^+ monocytes” value is listed as “induce the expression of CD155”.

B1: catalase: ROS scavenger catalase (Sigma-Aldrich), 200 IU/mL (protein, UniProt P00432 2-527, looked up)
Catalase: ADNRDPASDQMKHWKEQRAAQKPDVLTTGGGNPVGDKLNSLTVGPRGPLLVQDVVFTDEMAHFDRERIPERVVHAKGAGAFGYFEVTHDITRYSKAKVFEHIGKRTPIAVRFSTVAGESGSADTVRDPRGFAVKFYTEDGNWDLVGNNTPIFFIRDALLFPSFIHSQKRNPQTHLKDPDMVWDFWSLRPESLHQVSFLFSDRGIPDGHRHMNGYGSHTFKLVNANGEAVYCKFHYKTDQGIKNLSVEDAARLAHEDPDYGLRDLFNAIATGNYPSWTLYIQVMTFSEAEIFPFNPFDLTKVWPHGDYPLIPVGKLVLNRNPVNYFAEVEQLAFDPSNMPPGIEPSPDKMLQGRLFAYPDTHRHRLGPNYLQIPVNCPYRARVANYQRDGPMCMMDNQGGAPNYYPNSFSAPEHQPSALEHRTHFSGDVQRFNSANDDNVTQVRTFYLKVLNEEQRKRLCENIAGHLKDAQLFIQKKAVKNFSDVHPEYGSRIQALLDKYNEEKPKNAVHTYVQHGSHLSAREKANL
Turning to B1, the “NK cell cytotoxicity against K562, NK cells cultured alone” value in the data set on K562 is listed as “Neither anti-TIGIT nor catalase had any effect”. In addition, the “NK cell cytotoxicity against K562 after co-culture with MDSCs” value in the data set with K562 (5 days, 4 hours 51Cr release) is “completely reversed the suppressive effect”. Further, the “phosphorylation of ZAP70/Syk and ERK1/2” value with pZAP70/Syk and pERK1/2 is “increased the phosphorylation”. Moreover, in the data set on CD155 on MDSCs, the “decrease in the expression of CD155 on MDSCs” value is listed as 55%±23.

For the origin of these results see patent US12054744B2, “NK cells exhibiting an adaptive phenotype and methods for preparing and for using” (Regents of the University of Minnesota, priority 2015, dated 2024).
